For orientation: inhibition in vivo means how much of the control response was suppressed.

Common to all, as to type: functional
Assay [1] deals with Rattus norvegicus. Nature of the assay: Anti-inflammatory activity in Albino Rattus norvegicus (rat) assessed as inhibition of carrageenan-induced paw edema at 20 mg/kg, po administered 1 hr prior to carrageenan challenge measured after 5 hr by mercury displacement technique.
The subject of assay [2] is Rattus norvegicus. The experiment in a line: Anti-inflammatory activity in Albino Rattus norvegicus (rat) assessed as inhibition of carrageenan-induced paw edema at 20 mg/kg, po administered 1 hr prior to carrageenan challenge measured after 1 hr by mercury displacement technique. On the technique in general: The carrageenan paw model is a standard test of acute inflammation.

The test system of assay [3] is Rattus norvegicus. The experiment in a line: Anti-inflammatory activity in Albino Rattus norvegicus (rat) assessed as inhibition of carrageenan-induced paw edema at 20 mg/kg, po administered 1 hr prior to carrageenan challenge measured after 2 hr by mercury displacement technique.
In assay [4] the test system is Rattus norvegicus. Nature of the assay: Anti-inflammatory activity in Albino Rattus norvegicus (rat) assessed as inhibition of carrageenan-induced paw edema at 10 mg/kg, po administered 1 hr prior to carrageenan challenge measured after 2 hr by mercury displacement technique.
Assay [5] relates to Rattus norvegicus. Nature of the assay: Anti-inflammatory activity in Albino Rattus norvegicus (rat) assessed as inhibition of carrageenan-induced paw edema at 10 mg/kg, po administered 1 hr prior to carrageenan challenge measured after 5 hr by mercury displacement technique.
In assay [6] the test system is Rattus norvegicus. The experiment in a line: Anti-inflammatory activity in Albino Rattus norvegicus (rat) assessed as inhibition of carrageenan-induced paw edema at 10 mg/kg, po administered 1 hr prior to carrageenan challenge measured after 1 hr by mercury displacement technique.

As for `COc1cc(/C=N/NC(=S)Nn2c(S)nnc2-c2ccncc2)cc(OC)c1OC`, the results for the inhibition in vivo at 20 mg/kg in the assay with Rattus norvegicus [1], in the assay with Rattus norvegicus [2] and in the assay with Rattus norvegicus [3] were 61.4%, 36.2% and 52.9%, respectively.
With `COc1ccc2c(c1)c(CC(=O)O)c(C)n2C(=O)c1ccc(Cl)cc1` [INDOMETHACIN], the inhibition in vivo at 10 mg/kg with Rattus norvegicus [4] was found to be 73%; in the assay on Rattus norvegicus [5], 84%; in the assay with Rattus norvegicus [6], 52%.
In the case of `S=C(N/N=C/c1ccc(Cl)cc1)Nn1c(S)nnc1-c1ccncc1`, the inhibition in vivo at 20 mg/kg came out at 76.9% in the assay on Rattus norvegicus [1], 45.5% in the assay with Rattus norvegicus [2] and 69.6% in the assay with Rattus norvegicus [3].
The matching figures for `COc1ccc(/C=N/NC(=S)Nn2c(S)nnc2-c2ccncc2)cc1O`: 48.4%, 28% and 44.4%.
In the case of `S=C(N/N=C/c1ccccc1Cl)Nn1c(S)nnc1-c1ccncc1`, the inhibition in vivo at 20 mg/kg in the assay with Rattus norvegicus [1] is 67.3%; in the assay on Rattus norvegicus [2], 39.1%; in the assay on Rattus norvegicus [3], 62.5%.
The matching figures for `O=[N+]([O-])c1ccc(/C=N/NC(=S)Nn2c(S)nnc2-c2ccncc2)cc1`: 41.5%, 14.3% and 34.5%.

(Values after ChEMBL document CHEMBL3044575, “Synthesis, anti-inflammatory activity, and QSAR study of some Schiff bases derived from 5-mercapto-3-(4-pyridyl)-4H-1,2,4-triazol-4-yl-thiosemicarbazide” (2013).)
